In patent US8426394B2, “Progesterone antagonists such as CDB-4124 in the treatment of endometriosis, uterine fibroids, dysmenorrhea, breast cancer, etc” (Repros Therapeutics Inc., priority 2008, dated 2013):
One block for each compound: values may come before it.

Tests used:
[1] = Serum corticosterone in rats; details: progesterone, CDB-4124 and RU-486 groups compared
[2] = tested on: pre-menopausal adult women diagnosed with endometriosis; assay: Six month study of Proellex (CDB-4124) in the treatment of endometriosis; type: in vivo, human; details: Lucrin
Procedure: Pain reduction also occurred more rapidly than with the active control, Lucrin®. The response of pain to treatment in this study was analyzed in two ways. Patients in the study maintained daily pain diaries to record the severity and frequency of pain. In addition, at each office visit, patients filled out endometriosis symptom surveys that included a questionnaire that evaluated intensity of pain on a bad day on a scale of 0-10 with 10 being the greatest intensity. […] There appeared to be a dose dependent effect on pain reduction. […] This decrease in duration of pain was statistically better (p=0.0012) than the 117.8 (74%; standard deviation 51.4 days) pain free days achieved with Lucrin®. […] Patients on CDB-4124 12.5 mg and 25 mg doses had 115.9 (66%; standard deviation 69.2 days) and 133.6 (75%; standard deviation 27.4 days) pain free days, respectively. […] The 25 mg and 12.5 mg doses of CDB-4124 were not statistically different from Lucrin®. […] The intensity of pain was assessed by the question: “On a […], with 0 being no pain and 10 being extreme pain, how intense was your pain on a bad day?” The mean scores for intensity of pain at baseline were 6.3 for the CDB-4124 groups and 6.1 for the Lucrin® group. […] At month three all four active treatment groups had statistically significant reduction in pain compared with baseline, with the following scores: 3.7 (p=0.03) for 12.5 mg CDB-4124, 3.2 (p=0.03) for 25 mg CDB-4124, 1.6 (p=0.015) for 50 mg CDB-4124 and 1.5 (p=0.016) for Lucrin®. These dose related reductions continued until month six when the values for pain intensity were 2.0 (p=0.008), 2.8 (p=0.023), 0.6 (p=0.004) and 0.7 (p=0.016), respectively. Two months after stopping treatment pain returned and was of similar intensity in all four treatment groups.

[3] = tested on: progesterone-induced endometrial proliferation in the rabbit uterus; assay: anti-McGinty and anti-Clauberg assays (biological activity in the rabbit uterus); type: in vivo; details: in comparison to RU 486 and CDB-2914
From the text: Also given in Table 1 are the relative biological activities of the same compounds in the rabbit uterus by the anti-McGinty and anti-Clauberg assays. Compound CDB-2914 (listed at the end of the Table) was used as the control or reference compound (rabbit Biological Activity=1.00) for these experiments because results of experiments using CDB-2914 have been published before (Hild-Petito et al., 1996; Passaro et al., 1997; Reel et al., 1998; Lamer et al., 2000). For the anti-McGinty test, immature female rabbits received a subcutaneous injection of 5 μg estradiol in 10% ethanol/sesame oil daily for 6 consecutive days. On day 7, animals underwent sterile abdominal surgery to ligate a 3-4 cm segment of both uterine horns. The test compound in appropriate solvent was injected intraluminally into the ligated segment of one uterine horn and vehicle alone into the other. […] Five micron sections stained with hematoxylin and cosin were evaluated microscopically for the degree of endometrial glandular proliferation. The percent inhibition of endometrial proliferation for each rabbit was calculated and the mean of the group of five animals recorded. […] Five micron sections stained with hematoxylin and eosin were evaluated microscopically for the degree of endometrial glandular proliferation. […]

[4] = target: T1, glucocorticoid receptor (rbGR) (Oryctolagus cuniculus, UniProt P59667); assay: Glucocorticoid receptor binding / anti-glucocorticoid receptor activity; design: species or system rabbit
T1 construct: cytosol containing PR or GR were prepared in TEGMD buffer; from tissue; host or cells: thymus of estradiol-primed immature rabbits (cytosol)
T1 sequence (P59667 1-772): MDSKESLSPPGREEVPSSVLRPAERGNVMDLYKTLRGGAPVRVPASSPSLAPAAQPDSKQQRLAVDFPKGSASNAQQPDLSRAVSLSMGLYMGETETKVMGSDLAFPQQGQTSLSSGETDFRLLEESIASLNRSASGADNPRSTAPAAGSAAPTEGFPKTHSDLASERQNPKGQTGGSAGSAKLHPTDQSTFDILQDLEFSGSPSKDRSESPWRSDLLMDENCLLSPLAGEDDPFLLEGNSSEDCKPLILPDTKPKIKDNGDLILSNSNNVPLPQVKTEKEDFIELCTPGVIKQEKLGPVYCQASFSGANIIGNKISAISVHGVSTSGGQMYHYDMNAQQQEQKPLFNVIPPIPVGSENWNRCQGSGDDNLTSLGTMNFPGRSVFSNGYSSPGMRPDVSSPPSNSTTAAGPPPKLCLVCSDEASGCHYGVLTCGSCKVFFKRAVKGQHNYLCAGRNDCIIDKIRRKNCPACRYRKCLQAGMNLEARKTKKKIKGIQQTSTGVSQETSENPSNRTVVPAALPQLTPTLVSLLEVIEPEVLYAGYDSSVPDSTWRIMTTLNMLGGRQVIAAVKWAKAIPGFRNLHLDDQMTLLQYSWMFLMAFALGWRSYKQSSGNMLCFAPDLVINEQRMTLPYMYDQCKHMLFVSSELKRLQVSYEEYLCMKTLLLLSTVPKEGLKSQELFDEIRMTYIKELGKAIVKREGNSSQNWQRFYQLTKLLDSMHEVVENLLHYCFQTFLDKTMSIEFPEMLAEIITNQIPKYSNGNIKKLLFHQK
Procedure: Certain antiprogestins were tested in receptor-binding assays for their ability to bind rabbit progesterone receptor (rbPR) and glucocorticoid receptor (rbGR). […] For PR binding, the cytosol was incubated with 6 nM 1,2-[^3H]progesterone (50.0 Ci/mmole) and competitors were added at concentrations from 2 to 100 nM. For binding to GR, the cytosol was incubated with 6 nM 6,7-[^3H]-dexamethasone (40 Ci/mmol) and test compounds were added at concentrations from 20 to 100 nM. After overnight incubation at 4 C, bound and unbound [^3H] steroids were separated by addition of dextran-coated charcoal and centrifugation at 2100×g for 15 min at 4 C. Supernatants containing the [3H]-steroid receptor complexes were decanted into vials containing 4 ml Optifluor (Packard Instrument Co.), vortexed, equilibrated in a liquid scintillation counter for 30 minutes and then counted for 2 minutes. […] The standards for the PR and GR assays were unlabeled progesterone and dexamethasone, respectively.

[5] = target: T2, glucocorticoid receptor (Homo sapiens, UniProt P04150); details: Attardi et al., 2002; cited from earlier work
T2 sequence (P04150 1-777): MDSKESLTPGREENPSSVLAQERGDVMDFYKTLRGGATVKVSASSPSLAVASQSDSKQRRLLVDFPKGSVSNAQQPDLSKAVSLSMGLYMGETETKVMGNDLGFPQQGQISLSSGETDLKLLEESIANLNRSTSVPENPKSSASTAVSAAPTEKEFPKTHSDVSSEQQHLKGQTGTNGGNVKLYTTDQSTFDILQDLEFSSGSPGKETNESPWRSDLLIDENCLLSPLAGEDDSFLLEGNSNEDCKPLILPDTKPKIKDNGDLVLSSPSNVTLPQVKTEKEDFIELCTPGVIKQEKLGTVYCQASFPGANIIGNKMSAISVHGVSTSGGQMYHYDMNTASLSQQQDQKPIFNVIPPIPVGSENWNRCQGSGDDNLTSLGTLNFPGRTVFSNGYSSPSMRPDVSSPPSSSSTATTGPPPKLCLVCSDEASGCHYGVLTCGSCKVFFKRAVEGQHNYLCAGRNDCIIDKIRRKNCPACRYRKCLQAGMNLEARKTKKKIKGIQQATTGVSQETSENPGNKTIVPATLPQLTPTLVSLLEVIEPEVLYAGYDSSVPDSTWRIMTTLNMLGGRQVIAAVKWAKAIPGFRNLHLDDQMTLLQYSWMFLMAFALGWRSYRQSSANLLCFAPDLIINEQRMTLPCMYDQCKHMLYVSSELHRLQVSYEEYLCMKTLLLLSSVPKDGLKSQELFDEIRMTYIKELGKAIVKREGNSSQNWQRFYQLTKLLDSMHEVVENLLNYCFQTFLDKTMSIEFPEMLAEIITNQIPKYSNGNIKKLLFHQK

differences in serum corticosterone between treatment groups [1]: No differences
SMILES: CC#C[C@]1(O)CC[C@H]2[C@@H]3CCC4=CC(=O)CCC4=C3[C@@H](c3ccc(N(C)C)cc3)C[C@@]21C [RU 486, 11β-[p-(Dimethylamino)phenyl]-17β-hydroxy-17-(1-propynyl)estra-4,9-dien-3-one, reference compound]

SMILES: CCNC(=O)[C@@H]1CCCN1C(=O)[C@H](CCCNC(=N)N)NC(=O)[C@H](CC(C)C)NC(=O)[C@@H](CC(C)C)NC(=O)[C@H](Cc1ccc(O)cc1)NC(=O)[C@H](CO)NC(=O)[C@H](Cc1c[nH]c2ccccc12)NC(=O)[C@H](Cc1c[nH]cn1)NC(=O)[C@@H]1CCC(=O)N1 [Lupron®, leuprolide acetate, reference compound]
intensity of pain on a bad day (score) ([2]; month six, scale 0-10, p=0.016): 0.7
intensity of pain on a bad day (score) ([2]; month three, scale 0-10, baseline 6.1, p=0.016): 1.5

SMILES: CC(=O)OCC(=O)[C@@]1(OC(C)=O)CCC2C3CCC4=CC(=O)CCC4=C3C(c3ccc(N(C)C)cc3)C[C@@]21C (stereo partly drawn) [CDB-4059, 21-acetoxy-17α-acetoxy-11β-(4 N,N-dimethylaminophenyl)-19-norpregna-4,9-diene-3,20-dione]
antiprogestin activity in the rabbit uterus [3]: strong
anti-glucocorticoid receptor activity / glucocorticoid receptor binding [4]: minimal

SMILES: CNc1ccc([C@H]2C[C@@]3(C)[C@@H](CC[C@]3(OC(C)=O)C(=O)COC)[C@@H]3CCC4=CC(=O)CCC4=C32)cc1 [CDB-4453, 21-methoxy-17α-acetoxy-11β-(4-N-methylaminophenyl)-19-norpregna-4,9-diene-3,20-dione]
anti-glucocorticoid activity relative to parent CDB-4124 [5]: even lower
